Literature values, collected in US9406119B2, “Estimating pharmacokinetic parameters in imaging” (INVICRO, LLC, priority 2010, dated 2016).

Assays:
[1] = molecular target: T1, αvβ3 (Homo sapiens, UniProt P05106+P06756); conditions: parameter obtained from the literature
[2] = in vivo
[3] = molecular target: T1, αvβ3; conditions: parameter obtained from the literature; remark: listed apart in the source

T1 sequence (P06756 31-889 limits assumed): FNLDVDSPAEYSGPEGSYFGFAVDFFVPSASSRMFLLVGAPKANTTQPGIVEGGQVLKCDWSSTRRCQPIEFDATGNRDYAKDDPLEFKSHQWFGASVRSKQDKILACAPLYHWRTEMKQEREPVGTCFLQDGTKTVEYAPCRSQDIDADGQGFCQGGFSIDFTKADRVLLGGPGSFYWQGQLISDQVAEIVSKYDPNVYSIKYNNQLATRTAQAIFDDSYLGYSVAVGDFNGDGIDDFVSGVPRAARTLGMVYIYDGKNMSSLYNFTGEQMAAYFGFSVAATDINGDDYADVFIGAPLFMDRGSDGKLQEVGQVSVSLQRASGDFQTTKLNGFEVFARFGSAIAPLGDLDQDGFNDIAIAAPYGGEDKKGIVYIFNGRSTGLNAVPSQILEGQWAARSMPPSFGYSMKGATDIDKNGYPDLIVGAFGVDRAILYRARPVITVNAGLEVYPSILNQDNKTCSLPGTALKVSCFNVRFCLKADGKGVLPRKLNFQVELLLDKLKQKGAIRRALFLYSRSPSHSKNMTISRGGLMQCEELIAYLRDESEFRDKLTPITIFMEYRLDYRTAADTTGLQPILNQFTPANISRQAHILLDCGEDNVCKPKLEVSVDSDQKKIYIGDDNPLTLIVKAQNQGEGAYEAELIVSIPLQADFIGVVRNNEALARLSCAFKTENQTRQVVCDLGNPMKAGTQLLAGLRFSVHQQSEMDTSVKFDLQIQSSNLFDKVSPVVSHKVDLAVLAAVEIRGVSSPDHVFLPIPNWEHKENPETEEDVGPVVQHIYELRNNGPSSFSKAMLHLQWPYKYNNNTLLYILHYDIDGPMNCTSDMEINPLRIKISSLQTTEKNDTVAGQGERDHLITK
T1 sequence (P06756 891-1048 partner limits assumed): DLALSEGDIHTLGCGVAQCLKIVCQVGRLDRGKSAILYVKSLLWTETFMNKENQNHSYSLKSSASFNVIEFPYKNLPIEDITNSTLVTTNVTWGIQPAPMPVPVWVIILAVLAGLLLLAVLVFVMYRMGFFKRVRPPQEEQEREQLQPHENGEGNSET
T1 sequence (P05106 27-788): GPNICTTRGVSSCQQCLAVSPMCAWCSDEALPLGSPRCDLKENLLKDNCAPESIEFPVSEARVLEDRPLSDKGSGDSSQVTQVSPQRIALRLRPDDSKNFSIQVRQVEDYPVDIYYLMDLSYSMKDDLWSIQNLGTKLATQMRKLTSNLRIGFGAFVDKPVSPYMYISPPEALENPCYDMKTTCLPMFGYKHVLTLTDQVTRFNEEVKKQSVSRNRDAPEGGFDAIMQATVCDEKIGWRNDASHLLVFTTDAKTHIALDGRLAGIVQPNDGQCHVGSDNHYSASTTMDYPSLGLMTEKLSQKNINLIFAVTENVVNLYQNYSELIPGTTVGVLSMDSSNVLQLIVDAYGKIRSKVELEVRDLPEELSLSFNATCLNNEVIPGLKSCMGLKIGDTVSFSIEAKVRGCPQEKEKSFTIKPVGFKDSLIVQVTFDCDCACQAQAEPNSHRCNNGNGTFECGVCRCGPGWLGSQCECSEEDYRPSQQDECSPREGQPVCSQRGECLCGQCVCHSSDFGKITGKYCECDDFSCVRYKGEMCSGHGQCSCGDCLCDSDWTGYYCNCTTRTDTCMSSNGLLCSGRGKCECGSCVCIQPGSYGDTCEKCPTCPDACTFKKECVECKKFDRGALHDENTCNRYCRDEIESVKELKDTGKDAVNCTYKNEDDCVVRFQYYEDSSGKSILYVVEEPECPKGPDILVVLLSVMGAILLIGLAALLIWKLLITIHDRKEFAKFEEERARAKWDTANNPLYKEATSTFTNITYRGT

^18F-galacto-RGD [^18F-galacto RGD]
koff (CA/antigen dissociation rate constant) [1]: 0.0008 s⁻¹ | kon (CA/antigen association rate constant) [1]: 10^5 M^−1s^−1 | Kd ([1]; read-out: KD=koff/kon): 8 nM | A (fraction of fast phase of plasma clearance) [2]: 0.82 | B (fraction of slow phase of plasma clearance) [2]: 0.18 | α (fast plasma clearance rate constant) [2]: 0.0026 s⁻¹ | β (slow plasma clearance rate constant) [2]: 0.00014 s⁻¹ | ke,B (internalization rate constant of the CA/antigen bound complex) [3]: 1.48e-05 s⁻¹ | kresid (rate of release of CA or CA signal from the intracellular compartment) [3]: 1.6e-05 s⁻¹
